Assay results from ChEMBL document CHEMBL3621115, “Discovery of 6-phenylimidazo[2,1-b]thiazole derivatives as a new type of FLT3 inhibitors” (Bioorg Med Chem Lett, 2015).
Calls of active or inactive are those of the source. The calls are words filed in the database; no cut-off is given here.

Legend:
[1] = biological target: Vascular endothelial growth factor receptor 3 (Homo sapiens, UniProt P35916); assay: Inhibition of human recombinant Flt4
[2] = Cytotoxicity against human A875 cells assessed as cell viability after 72 hrs by MTT assay; type: functional, cell-based; details: A875, 72 h
[3] = biological target: Serine/threonine-protein kinase D2 (Homo sapiens, UniProt Q9BZL6); assay: Inhibition of human recombinant PKD2
[4] = system: HeLa; assay: Cytotoxicity against human HeLa cells assessed as cell viability after 72 hrs by MTT assay; type: functional, cell-based
[5] = biological target: Receptor tyrosine-protein kinase erbB-4 (Homo sapiens, UniProt Q15303); assay: Inhibition of human recombinant ErbB4
[6] = biological target: Mitogen-activated protein kinase 10 (Homo sapiens, UniProt P53779); assay: Inhibition of human recombinant JNK3
Mitogen-activated protein kinase 10, sequence (P53779 whole entry): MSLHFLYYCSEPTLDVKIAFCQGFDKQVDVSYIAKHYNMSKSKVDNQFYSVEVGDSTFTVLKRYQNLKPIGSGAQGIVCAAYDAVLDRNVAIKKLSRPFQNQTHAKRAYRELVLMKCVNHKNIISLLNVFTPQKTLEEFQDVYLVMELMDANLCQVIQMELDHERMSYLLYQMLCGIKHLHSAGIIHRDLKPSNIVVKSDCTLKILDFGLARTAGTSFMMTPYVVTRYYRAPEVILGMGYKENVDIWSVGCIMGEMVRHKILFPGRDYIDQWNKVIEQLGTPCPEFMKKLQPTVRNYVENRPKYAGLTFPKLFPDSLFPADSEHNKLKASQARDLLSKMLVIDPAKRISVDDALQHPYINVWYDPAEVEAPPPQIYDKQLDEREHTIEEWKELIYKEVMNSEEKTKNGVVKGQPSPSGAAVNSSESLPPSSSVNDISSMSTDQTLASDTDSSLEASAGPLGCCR

[7] = system: MV4-11; assay: Cytotoxicity against human MV4-11 cells assessed as cell viability after 72 hrs by MTT assay; type: functional, cell-based; details: MV4-11, 72 h
[8] = Cytotoxicity against human SKBR3 cells assessed as cell viability after 72 hrs by MTT assay; type: functional, cell-based; details: SK-BR-3, 72 h
[9] = system: NCI-H1975; assay: Cytotoxicity against human NCI-H1975 cells assessed as cell viability after 72 hrs by MTT assay; type: functional, cell-based; details: NCI-H1975, 72 h
[10] = biological target: Vascular endothelial growth factor receptor 2 (Homo sapiens, UniProt P35968); assay: Inhibition of human recombinant KDR
[11] = biological target: Tyrosine-protein kinase Lck (Homo sapiens, UniProt P06239); assay: Inhibition of human recombinant Lck
Tyrosine-protein kinase Lck, sequence (P06239 whole entry): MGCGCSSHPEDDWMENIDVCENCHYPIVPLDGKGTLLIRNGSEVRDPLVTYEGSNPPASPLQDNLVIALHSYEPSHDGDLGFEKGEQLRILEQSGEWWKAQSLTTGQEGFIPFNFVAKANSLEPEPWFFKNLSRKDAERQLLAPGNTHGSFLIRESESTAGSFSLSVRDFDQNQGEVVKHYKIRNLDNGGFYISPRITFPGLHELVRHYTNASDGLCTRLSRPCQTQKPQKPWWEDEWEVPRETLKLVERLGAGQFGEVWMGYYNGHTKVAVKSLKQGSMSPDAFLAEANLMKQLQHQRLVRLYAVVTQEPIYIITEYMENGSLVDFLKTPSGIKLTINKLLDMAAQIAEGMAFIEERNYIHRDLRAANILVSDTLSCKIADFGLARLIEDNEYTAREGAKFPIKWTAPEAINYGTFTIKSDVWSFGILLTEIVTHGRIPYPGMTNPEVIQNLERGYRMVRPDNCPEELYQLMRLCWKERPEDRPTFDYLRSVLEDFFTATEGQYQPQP

[12] = system: SH-SY5Y; assay: Cytotoxicity against human SH-SY5Y cells assessed as cell viability after 72 hrs by MTT assay; type: functional, cell-based
[13] = biological target: RAF proto-oncogene serine/threonine-protein kinase (Homo sapiens, UniProt P04049); assay: Inhibition of human recombinant c-RAF
[14] = Cytotoxicity against human PC9 cells assessed as cell viability after 72 hrs by MTT assay; type: functional, cell-based; details: PC-9, 72 h
[15] = system: MDA-MB-157; assay: Cytotoxicity against human MDA-MB-157 cells assessed as cell viability after 72 hrs by MTT assay; type: functional, cell-based; details: MDA-MB-157, 72 h
[16] = Cytotoxicity against human DLD1 cells assessed as cell viability after 72 hrs by MTT assay; type: functional, cell-based; details: DLD-1, 72 h
[17] = biological target: Insulin-like growth factor 1 receptor (Homo sapiens, UniProt P08069); assay: Inhibition of human recombinant IGF-1R
Insulin-like growth factor 1 receptor, sequence (P08069 31-736 limits assumed): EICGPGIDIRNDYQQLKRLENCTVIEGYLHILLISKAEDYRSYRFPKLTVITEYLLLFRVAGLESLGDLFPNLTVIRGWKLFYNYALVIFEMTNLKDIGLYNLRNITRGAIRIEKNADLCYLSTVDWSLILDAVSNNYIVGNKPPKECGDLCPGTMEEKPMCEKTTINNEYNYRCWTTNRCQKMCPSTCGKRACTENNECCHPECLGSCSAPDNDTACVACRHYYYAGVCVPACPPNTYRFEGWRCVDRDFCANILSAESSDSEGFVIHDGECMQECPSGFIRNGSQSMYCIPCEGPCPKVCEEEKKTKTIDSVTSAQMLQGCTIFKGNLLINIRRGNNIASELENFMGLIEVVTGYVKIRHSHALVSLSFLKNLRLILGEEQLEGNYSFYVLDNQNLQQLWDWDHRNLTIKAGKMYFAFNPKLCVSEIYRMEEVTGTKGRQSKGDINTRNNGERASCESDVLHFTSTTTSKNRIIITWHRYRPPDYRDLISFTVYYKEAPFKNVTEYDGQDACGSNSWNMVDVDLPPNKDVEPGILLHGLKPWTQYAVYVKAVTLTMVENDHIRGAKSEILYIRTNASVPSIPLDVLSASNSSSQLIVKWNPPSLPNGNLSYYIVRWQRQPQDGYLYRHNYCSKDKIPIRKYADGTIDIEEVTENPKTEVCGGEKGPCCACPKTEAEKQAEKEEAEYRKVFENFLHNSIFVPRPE
Insulin-like growth factor 1 receptor, sequence (P08069 741-1367 limits assumed): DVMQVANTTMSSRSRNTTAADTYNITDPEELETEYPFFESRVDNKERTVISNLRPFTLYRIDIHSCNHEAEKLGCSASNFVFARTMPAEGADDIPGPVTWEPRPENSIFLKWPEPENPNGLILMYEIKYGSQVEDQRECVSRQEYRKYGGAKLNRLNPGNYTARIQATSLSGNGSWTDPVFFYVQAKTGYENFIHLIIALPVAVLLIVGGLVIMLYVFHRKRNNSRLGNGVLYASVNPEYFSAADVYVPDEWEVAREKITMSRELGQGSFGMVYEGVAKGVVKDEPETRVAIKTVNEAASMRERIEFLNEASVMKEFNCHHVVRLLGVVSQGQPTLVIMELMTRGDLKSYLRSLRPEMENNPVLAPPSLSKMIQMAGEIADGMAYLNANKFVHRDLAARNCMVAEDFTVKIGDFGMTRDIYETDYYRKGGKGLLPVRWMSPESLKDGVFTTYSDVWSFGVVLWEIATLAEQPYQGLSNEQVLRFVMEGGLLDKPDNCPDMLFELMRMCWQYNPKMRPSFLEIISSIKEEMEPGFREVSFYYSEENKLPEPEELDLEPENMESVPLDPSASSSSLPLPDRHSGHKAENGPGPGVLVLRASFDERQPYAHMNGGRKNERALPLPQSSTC

[18] = biological target: Platelet-derived growth factor receptor alpha (Homo sapiens, UniProt P16234); assay: Inhibition of human recombinant PDGFRalpha
[19] = system: MCF7; assay: Cytotoxicity against human MCF7 cells assessed as cell viability after 72 hrs by MTT assay; type: functional, cell-based; details: MCF7, 72 h
[20] = Cytotoxicity against human OCI-LY19 cells assessed as cell viability after 72 hrs by MTT assay; type: functional, cell-based; details: OCI-LY19, 72 h
[21] = system: ZR-75-1; assay: Cytotoxicity against human ZR-75-1 cells assessed as cell viability after 72 hrs by MTT assay; type: functional, cell-based; details: ZR-75-1, 72 h
[22] = biological target: Receptor-type tyrosine-protein kinase FLT3 (Homo sapiens) (UniProt P36888); assay: Inhibition of FLT3 phosphorylation in human MV4-11 cells after 6 hrs by Western blotting analysis; type: cell-based
Receptor-type tyrosine-protein kinase FLT3 (Homo sapiens), sequence (P36888 whole entry): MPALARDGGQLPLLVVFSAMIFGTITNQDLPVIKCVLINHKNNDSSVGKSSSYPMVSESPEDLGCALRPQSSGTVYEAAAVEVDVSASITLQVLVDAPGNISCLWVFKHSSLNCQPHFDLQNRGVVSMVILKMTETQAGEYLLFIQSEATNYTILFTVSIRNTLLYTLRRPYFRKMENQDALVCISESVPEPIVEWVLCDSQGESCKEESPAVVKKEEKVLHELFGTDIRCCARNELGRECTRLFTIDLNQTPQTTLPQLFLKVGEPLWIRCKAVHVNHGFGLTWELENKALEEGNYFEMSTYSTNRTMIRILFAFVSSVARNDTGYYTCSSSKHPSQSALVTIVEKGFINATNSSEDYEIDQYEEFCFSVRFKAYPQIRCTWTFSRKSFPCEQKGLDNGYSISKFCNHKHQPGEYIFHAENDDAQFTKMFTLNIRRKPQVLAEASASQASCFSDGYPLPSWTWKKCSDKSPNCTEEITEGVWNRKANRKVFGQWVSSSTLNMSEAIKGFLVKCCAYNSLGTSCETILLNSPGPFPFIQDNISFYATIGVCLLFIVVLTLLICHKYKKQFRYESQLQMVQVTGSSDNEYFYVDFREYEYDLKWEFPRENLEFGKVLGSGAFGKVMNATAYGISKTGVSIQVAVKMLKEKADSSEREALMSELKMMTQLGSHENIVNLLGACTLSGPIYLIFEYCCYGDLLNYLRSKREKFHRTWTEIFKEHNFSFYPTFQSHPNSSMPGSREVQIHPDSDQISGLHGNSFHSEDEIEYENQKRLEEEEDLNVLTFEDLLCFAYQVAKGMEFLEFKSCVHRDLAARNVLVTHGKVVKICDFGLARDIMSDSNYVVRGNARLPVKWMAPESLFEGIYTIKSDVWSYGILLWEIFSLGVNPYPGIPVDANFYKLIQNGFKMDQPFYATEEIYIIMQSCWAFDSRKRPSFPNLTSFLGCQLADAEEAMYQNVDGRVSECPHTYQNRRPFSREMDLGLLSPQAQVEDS

[23] = biological target: Mitogen-activated protein kinase kinase kinase 9 (Homo sapiens, UniProt P80192); assay: Inhibition of human recombinant MLK1
[24] = Cytotoxicity against human SKHEP1 cells assessed as cell viability after 72 hrs by MTT assay; type: functional, cell-based; details: SK-HEP1, 72 h
[25] = system: MDA-MB-231; assay: Cytotoxicity against human MDA-MB-231 cells assessed as cell viability after 72 hrs by MTT assay; type: functional, cell-based; details: MDA-MB-231, 72 h
[26] = biological target: Receptor-type tyrosine-protein kinase FLT3 (Homo sapiens) (UniProt P36888); assay: Inhibition of FLT3 in human MV4-11 cells assessed as down regulation of STAT5 phosphorylation at >0.001 uM after 6 hrs by Western blotting analysis; type: cell-based
[27] = biological target: Serine/threonine-protein kinase PAK 2 (Homo sapiens, UniProt Q13177); assay: Inhibition of human recombinant PAK2
[28] = biological target: 5'-AMP-activated protein kinase catalytic subunit alpha-1 (Homo sapiens, UniProt Q13131); assay: Inhibition of human recombinant AMPKalpha1
[29] = biological target: Platelet-derived growth factor receptor beta (Homo sapiens, UniProt P09619); assay: Inhibition of human recombinant PDGFRbeta
[30] = biological target: Dual specificity mitogen-activated protein kinase kinase 1 (Homo sapiens, UniProt Q02750); assay: Inhibition of human recombinant MEK1
[31] = system: U-251; assay: Cytotoxicity against human U251 cells assessed as cell viability after 72 hrs by MTT assay; type: functional, cell-based; details: U-251, 72 h
[32] = biological target: Fibroblast growth factor receptor 2 (Homo sapiens, UniProt P21802); assay: Inhibition of human recombinant FGFR2
[33] = biological target: Tyrosine-protein kinase ABL1 (Homo sapiens, UniProt P00519); assay: Inhibition of human recombinant Abl
[34] = biological target: Tyrosine-protein kinase Fyn (Homo sapiens, UniProt P06241); assay: Inhibition of human recombinant Fyn
[35] = biological target: Calcium/calmodulin-dependent protein kinase type IV (Homo sapiens, UniProt Q16566); assay: Inhibition of human recombinant CaMK4
[36] = biological target: Mast/stem cell growth factor receptor Kit (Homo sapiens, UniProt P10721); assay: Inhibition of human recombinant ckit
[37] = biological target: Ephrin type-B receptor 2 (Homo sapiens, UniProt P29323); assay: Inhibition of human recombinant EphB2
[38] = system: HT-29; assay: Cytotoxicity against human HT-29 cells assessed as cell viability after 72 hrs by MTT assay; type: functional, cell-based; details: HT-29, 72 h
[39] = biological target: Hepatocyte growth factor receptor (Homo sapiens, UniProt P08581); assay: Inhibition of human recombinant Met
[40] = biological target: Serine/threonine-protein kinase PAK 4 (Homo sapiens, UniProt O96013); assay: Inhibition of human recombinant PAK4
[41] = biological target: Vascular endothelial growth factor receptor 1 (Homo sapiens, UniProt P17948); assay: Inhibition of human recombinant Flt1
[42] = biological target: Receptor-type tyrosine-protein kinase FLT3 (Homo sapiens) (UniProt P36888); assay: Inhibition of FLT3 in human MV4-11 cells assessed as down regulation of ERK1/2 phosphorylation at >0.001 uM after 6 hrs by Western blotting analysis; type: cell-based
[43] = system: BT-474; assay: Cytotoxicity against human BT474 cells assessed as cell viability after 72 hrs by MTT assay; type: functional, cell-based; details: BT-474, 72 h
[44] = system: A549; assay: Cytotoxicity against human A549 cells assessed as cell viability after 72 hrs by MTT assay; type: functional, cell-based; details: A549, 72 h
[45] = biological target: Serine/threonine-protein kinase Chk1 (Homo sapiens, UniProt O14757); assay: Inhibition of human recombinant CHK1
[46] = biological target: Proto-oncogene tyrosine-protein kinase receptor Ret (Homo sapiens, UniProt P07949); assay: Inhibition of human recombinant Ret
Proto-oncogene tyrosine-protein kinase receptor Ret, sequence (P07949 whole entry): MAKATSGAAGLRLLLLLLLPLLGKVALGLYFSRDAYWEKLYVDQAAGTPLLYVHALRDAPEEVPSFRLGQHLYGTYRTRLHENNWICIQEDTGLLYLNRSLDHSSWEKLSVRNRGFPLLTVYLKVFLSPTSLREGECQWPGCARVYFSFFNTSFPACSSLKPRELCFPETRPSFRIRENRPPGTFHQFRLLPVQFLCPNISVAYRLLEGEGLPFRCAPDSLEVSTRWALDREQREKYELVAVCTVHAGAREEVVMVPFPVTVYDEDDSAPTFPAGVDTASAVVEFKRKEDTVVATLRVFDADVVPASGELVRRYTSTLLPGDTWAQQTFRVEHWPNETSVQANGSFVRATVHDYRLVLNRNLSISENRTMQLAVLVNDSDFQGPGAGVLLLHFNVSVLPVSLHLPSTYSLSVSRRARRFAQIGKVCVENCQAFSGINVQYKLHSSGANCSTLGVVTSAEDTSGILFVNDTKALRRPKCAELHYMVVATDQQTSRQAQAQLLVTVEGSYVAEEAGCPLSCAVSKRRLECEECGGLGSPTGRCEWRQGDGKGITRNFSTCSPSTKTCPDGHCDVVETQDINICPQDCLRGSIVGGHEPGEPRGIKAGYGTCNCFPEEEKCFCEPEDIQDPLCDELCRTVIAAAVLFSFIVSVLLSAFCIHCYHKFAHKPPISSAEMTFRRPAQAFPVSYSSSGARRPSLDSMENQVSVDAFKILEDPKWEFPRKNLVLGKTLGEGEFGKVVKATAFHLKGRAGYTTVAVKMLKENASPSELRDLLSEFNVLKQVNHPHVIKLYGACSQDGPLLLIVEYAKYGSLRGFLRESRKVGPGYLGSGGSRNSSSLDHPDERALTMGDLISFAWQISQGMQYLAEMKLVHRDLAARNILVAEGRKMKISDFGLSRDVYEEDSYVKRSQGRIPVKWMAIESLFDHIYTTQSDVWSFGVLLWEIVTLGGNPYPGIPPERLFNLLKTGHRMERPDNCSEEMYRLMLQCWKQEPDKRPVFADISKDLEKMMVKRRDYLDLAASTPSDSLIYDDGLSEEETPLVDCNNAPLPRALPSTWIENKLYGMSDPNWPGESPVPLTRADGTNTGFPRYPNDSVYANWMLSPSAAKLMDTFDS

[47] = system: SW480; assay: Cytotoxicity against human SW480 cells assessed as cell viability after 72 hrs by MTT assay; type: functional, cell-based; details: SW480, 72 h
[48] = biological target: Aurora kinase A (Homo sapiens, UniProt O14965); assay: Inhibition of human recombinant Aurora-A
Aurora kinase A, sequence (O14965 whole entry): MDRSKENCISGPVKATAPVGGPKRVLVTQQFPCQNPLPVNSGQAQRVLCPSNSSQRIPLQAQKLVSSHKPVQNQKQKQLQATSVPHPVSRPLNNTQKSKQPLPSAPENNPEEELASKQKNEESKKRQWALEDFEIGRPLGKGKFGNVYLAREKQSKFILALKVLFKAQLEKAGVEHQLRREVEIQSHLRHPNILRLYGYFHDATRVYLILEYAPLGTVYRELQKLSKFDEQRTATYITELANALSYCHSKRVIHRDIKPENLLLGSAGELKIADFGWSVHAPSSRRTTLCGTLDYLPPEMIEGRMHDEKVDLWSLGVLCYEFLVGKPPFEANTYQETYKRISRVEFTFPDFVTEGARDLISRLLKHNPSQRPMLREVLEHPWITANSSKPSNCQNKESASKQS

CN(C)CCCNC(=O)c1csc2nc(-c3ccc(NC(=O)Nc4cc(C(C)(C)C)on4)cc3)cn12
IC50 [1]: 1.19 µM
IC50 [2]: 10 µM
IC50 [3]: > 10 µM
IC50 [4]: 20 µM
IC50 [5]: > 10 µM
IC50 [6]: > 10 µM
IC50 [7]: 0.002 µM
IC50 [8]: 10 µM
IC50 [9]: > 10 µM
IC50 [10]: 2.46 µM
IC50 [11]: > 10 µM
IC50 [12]: 3.3 µM
IC50 [13]: > 10 µM
IC50 [14]: > 10 µM
IC50 [15]: > 10 µM
IC50 [16]: 10 µM
IC50 [17]: > 10 µM
IC50 [18]: 0.37 µM
IC50 [19]: > 10 µM
IC50 [20]: 3.3 µM
IC50 [21]: > 10 µM
inhibition [22]: Dose-dependent effect
IC50 [23]: > 10 µM
IC50 [24]: 10 µM
IC50 [25]: 10 µM
inhibition [26]: Active
IC50 [27]: > 10 µM
IC50 [28]: > 10 µM
IC50 [29]: 1.98 µM
IC50 [30]: > 10 µM
IC50 [31]: > 10 µM
IC50 [32]: > 10 µM
IC50 [33]: > 10 µM
IC50 [34]: > 10 µM
IC50 [35]: > 10 µM
IC50 [36]: 0.294 µM
IC50 [37]: > 10 µM
IC50 [38]: 10 µM
IC50 [39]: > 10 µM
IC50 [40]: > 10 µM
IC50 [41]: 2.83 µM
inhibition [42]: Active
IC50 [43]: 10 µM
IC50 [44]: 10 µM
IC50 [45]: > 10 µM
IC50 [46]: 0.986 µM
IC50 [47]: 10 µM
IC50 [48]: > 10 µM
